Data: ChEMBL document CHEMBL1909046, “DrugMatrix in vitro pharmacology data”

What was measured:
[1] = target: Platelet-activating factor receptor (Homo sapiens, UniProt P25105); format: tissue-based; also: in other assays of this panel Not Active means under 50% inhibition at 10 µM
[2] = target: Voltage-gated inwardly rectifying potassium channel KCNH2 (Homo sapiens, UniProt Q12809); settings: hek293; also: in other assays of this panel Not Active means under 50% inhibition at 10 µM
[3] = DRUGMATRIX: Glutamate, NMDA, Phencyclidine radioligand binding (ligand: [3H] TCP); format: cell membranes, Rattus norvegicus, Wistar, Cerebral cortex, Membrane; settings: Not Active = under 50% inhibition at 10 µM
[4] = DRUGMATRIX: Glutamate, Kainate radioligand binding (ligand: [3H] Kainic acid); format: cell membranes, Rattus norvegicus, Wistar, Brain, Membrane; settings: Not Active = under 50% inhibition at 10 µM
[5] = target: 5-hydroxytryptamine receptor 6 (Homo sapiens, UniProt P50406); format: cell membranes, HeLa, Membrane; also: in other assays of this panel Not Active means under 50% inhibition at 10 µM
5-hydroxytryptamine receptor 6, sequence (P50406 whole entry): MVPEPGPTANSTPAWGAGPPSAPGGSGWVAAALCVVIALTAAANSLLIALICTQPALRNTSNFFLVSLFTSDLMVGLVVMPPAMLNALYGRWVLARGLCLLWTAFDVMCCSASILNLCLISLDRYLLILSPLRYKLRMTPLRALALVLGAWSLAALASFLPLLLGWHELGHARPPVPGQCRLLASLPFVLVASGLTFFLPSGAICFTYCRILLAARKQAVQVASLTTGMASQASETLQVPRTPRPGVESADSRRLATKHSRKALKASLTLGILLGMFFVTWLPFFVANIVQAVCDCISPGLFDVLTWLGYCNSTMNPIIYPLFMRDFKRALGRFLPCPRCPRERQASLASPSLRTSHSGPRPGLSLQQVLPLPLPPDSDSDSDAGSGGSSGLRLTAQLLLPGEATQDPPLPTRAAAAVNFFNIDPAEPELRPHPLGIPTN

[6] = target: T1, Polyunsaturated fatty acid lipoxygenase ALOX15 (Oryctolagus cuniculus, UniProt P12530); assay: biochemical; format: tissue-based, Reticulocytes;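 also: inhibition of 15-lipoxygenase enzyme activity measured with linoleic acid as the substrate; in other assays of this panel Not Active means under 50% inhibition at 10 µM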
T1 sequence (P12530 whole entry): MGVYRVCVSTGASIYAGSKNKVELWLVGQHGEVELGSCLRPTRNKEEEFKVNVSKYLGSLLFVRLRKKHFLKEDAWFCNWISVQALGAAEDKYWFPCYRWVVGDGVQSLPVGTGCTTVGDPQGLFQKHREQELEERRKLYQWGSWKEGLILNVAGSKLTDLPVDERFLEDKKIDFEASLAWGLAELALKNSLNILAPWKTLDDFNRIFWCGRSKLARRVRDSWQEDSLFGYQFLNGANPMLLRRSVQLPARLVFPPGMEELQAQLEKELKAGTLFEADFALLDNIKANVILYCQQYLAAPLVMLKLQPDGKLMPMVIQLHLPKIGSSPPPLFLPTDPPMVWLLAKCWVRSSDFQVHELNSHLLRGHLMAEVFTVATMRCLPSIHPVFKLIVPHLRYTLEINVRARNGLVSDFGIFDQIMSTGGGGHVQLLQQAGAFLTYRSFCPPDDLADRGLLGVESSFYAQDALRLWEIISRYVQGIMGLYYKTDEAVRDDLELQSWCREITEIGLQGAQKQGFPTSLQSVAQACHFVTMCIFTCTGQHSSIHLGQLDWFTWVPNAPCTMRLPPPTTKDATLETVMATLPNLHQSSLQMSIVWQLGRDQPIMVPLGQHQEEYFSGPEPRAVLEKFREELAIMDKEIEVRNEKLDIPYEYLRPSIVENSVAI

Endothelin-1 receptor = target: T2, Endothelin-1 receptor (Homo sapiens, UniProt P25101); format: cell membranes, Membrane; settings: cho-k1; also: in other assays of this panel Not Active means under 50% inhibition at 10 µM
T2 sequence (P25101 whole entry): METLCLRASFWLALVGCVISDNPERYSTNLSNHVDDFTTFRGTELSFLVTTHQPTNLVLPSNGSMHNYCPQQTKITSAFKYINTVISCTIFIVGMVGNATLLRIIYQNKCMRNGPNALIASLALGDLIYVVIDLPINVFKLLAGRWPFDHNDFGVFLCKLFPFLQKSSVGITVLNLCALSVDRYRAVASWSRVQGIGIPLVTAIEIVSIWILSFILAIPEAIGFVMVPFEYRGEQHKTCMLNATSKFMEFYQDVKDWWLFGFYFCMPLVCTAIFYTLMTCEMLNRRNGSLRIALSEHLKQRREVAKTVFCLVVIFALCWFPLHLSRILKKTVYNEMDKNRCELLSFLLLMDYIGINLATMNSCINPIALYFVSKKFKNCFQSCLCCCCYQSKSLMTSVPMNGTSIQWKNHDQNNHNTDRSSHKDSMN

Voltage-gated inwardly rectifying potassium channel KCNH2, sequence (Q12809 whole entry): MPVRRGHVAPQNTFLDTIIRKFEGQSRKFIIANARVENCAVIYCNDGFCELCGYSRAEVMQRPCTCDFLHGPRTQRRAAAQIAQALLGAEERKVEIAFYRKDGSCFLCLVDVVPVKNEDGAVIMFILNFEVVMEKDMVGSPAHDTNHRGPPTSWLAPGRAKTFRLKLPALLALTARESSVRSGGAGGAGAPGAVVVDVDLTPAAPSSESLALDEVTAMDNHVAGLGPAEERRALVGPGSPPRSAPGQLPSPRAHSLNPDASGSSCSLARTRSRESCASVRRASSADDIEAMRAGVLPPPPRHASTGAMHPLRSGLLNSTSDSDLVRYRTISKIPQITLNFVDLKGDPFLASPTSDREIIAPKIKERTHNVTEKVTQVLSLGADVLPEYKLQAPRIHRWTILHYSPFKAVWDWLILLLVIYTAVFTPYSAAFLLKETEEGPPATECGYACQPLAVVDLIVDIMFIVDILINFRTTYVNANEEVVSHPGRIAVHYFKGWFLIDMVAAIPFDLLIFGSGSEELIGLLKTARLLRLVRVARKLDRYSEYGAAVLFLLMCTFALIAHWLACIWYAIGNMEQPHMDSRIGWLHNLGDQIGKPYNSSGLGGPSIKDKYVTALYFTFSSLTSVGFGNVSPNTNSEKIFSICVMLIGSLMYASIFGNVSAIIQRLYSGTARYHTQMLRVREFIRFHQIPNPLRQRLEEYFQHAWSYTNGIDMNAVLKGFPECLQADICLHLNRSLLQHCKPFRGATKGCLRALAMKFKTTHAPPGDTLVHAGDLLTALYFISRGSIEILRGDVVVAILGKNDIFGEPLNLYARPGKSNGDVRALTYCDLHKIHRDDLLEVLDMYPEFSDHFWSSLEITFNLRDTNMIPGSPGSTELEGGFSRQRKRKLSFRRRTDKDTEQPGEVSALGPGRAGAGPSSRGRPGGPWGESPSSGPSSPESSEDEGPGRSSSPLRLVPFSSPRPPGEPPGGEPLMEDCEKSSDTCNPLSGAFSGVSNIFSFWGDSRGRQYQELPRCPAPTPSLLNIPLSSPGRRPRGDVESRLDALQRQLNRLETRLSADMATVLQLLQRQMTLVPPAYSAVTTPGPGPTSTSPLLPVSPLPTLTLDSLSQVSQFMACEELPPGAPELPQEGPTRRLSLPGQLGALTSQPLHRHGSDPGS
Platelet-activating factor receptor, sequence (P25105 whole entry): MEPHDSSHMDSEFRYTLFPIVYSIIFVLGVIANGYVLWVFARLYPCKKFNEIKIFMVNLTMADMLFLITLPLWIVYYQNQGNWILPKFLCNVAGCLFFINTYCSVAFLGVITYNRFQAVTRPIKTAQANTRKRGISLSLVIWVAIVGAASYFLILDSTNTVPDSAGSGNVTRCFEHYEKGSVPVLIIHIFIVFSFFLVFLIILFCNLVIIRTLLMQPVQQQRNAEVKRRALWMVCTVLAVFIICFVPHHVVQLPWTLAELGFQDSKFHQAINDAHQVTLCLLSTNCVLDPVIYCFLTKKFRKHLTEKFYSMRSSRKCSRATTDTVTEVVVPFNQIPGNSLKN

| Structure (SMILES) | IC50 [1] | IC50 [2] | Ki [2] | IC50 [3] | Ki [3] | IC50 [4] | Ki [4] | IC50 ([5]; hela) | IC50 ([6]; reticulocytes) | IC50 (Endothelin-1 receptor) | IC50 ([5]; read-out: IC50) [nM] | Ki ([5]; read-out: Ki) [nM] | IC50 ([6]; read-out: IC50) [nM] |
| --- | --- | --- | --- | --- | --- | --- | --- | --- | --- | --- | --- | --- | --- |
| Brc1c(NC2=NCCN2)ccc2nccnc12 [BRIMONIDINE] | Not Active | Not Active | Not Active | Not Active | Not Active | Not Active | Not Active | Not Active | Not Active | Not Active |  |  |  |
| CN(C)[C@@H]1C(O)=C(C(N)=O)C(=O)[C@@]2(O)C(O)=C3C(=O)c4c(O)ccc(Cl)c4[C@@](C)(O)[C@H]3C[C@@H]12 [CHLORTETRACYCLINE] | Not Active | Not Active | Not Active | Not Active | Not Active | Not Active | Not Active | Not Active | Not Active | Not Active |  |  |  |
| CN/C(=N\CCSCc1nc[nH]c1C)NC#N [CIMETIDINE] | Not Active | Not Active | Not Active | Not Active | Not Active | Not Active | Not Active | Not Active | Not Active | Not Active |  |  |  |
| CCC(=O)O[C@]1(C(=O)CCl)[C@@H](C)C[C@H]2[C@@H]3CCC4=CC(=O)C=C[C@]4(C)[C@@]3(F)[C@@H](O)C[C@@]21C [CLOBETASOL PROPIONATE] | Not Active | Not Active | Not Active | Not Active | Not Active | Not Active | Not Active | Not Active | Not Active | Not Active |  |  |  |
| O=C1CN=C(c2ccccc2Cl)c2cc([N+](=O)[O-])ccc2N1 [CLONAZEPAM] | Not Active | Not Active | Not Active | Not Active | Not Active | Not Active | Not Active | Not Active | Not Active | Not Active |  |  |  |
| Nc1ccn([C@@H]2O[C@H](CO)[C@@H](O)[C@@H]2O)c(=O)n1 [CYTARABINE] | Not Active | Not Active | Not Active | Not Active | Not Active | Not Active | Not Active | Not Active | Not Active | Not Active |  |  |  |
| C[C@@H]1C[C@H]2[C@@H]3CCC4=CC(=O)C=C[C@]4(C)[C@@]3(F)[C@@H](O)C[C@]2(C)[C@H]1C(=O)CO [DESOXIMETASONE] | Not Active | Not Active | Not Active | Not Active | Not Active | Not Active | Not Active | Not Active | Not Active | Not Active |  |  |  |
| C[C@@H]1C[C@H]2[C@@H]3CCC4=CC(=O)C=C[C@]4(C)[C@@]3(F)[C@@H](O)C[C@]2(C)[C@@]1(O)C(=O)CO [DEXAMETHASONE] | Not Active | Not Active | Not Active | Not Active | Not Active | Not Active | Not Active | Not Active | Not Active | Not Active |  |  |  |
| CN(C)CC[C@@H](c1ccc(Cl)cc1)c1ccccn1 [DEXCHLORPHENIRAMINE] | Not Active | Not Active | Not Active | Not Active | Not Active | Not Active | Not Active | Not Active | Not Active | Not Active |  |  |  |
| C[C@@H]1CC[C@@]2(OC1)O[C@H]1[C@@H](O)[C@H]3[C@@H]4CC[C@H]5C[C@@H](O[C@@H]6O[C@H](CO)[C@H](O[C@@H]7O[C@H](CO)C(O)[C@H](O[C@@H]8OC[C@@H](O)[C@H](O)[C@H]8O)[C@H]7O[C@@H]7O[C@H](CO)[C@H](O)[C@H](O[C@@H]8O[C@H](CO)[C@@H](O)[C@H](O)[C@H]8O)[C@H]7O)[C@H](O)[C@H]6O)[C@H](O)C[C@]5(C)[C@H]4CC[C@]3(C)[C@H]1[C@@H]2C (stereo partly specified) [DIGITONIN] | Not Active | Not Active | Not Active | Not Active | Not Active | Not Active | Not Active | Not Active | Not Active | Not Active |  |  |  |
| OC(CCCN1CCCCC1)(c1ccccc1)c1ccccc1 [DIPHENIDOL] | Not Active | Not Active | Not Active | Not Active | Not Active | Not Active | Not Active | Not Active | Not Active | Not Active |  |  |  |
| C[C@H]1O[C@@H](n2cc(F)c(=O)[nH]c2=O)[C@H](O)[C@@H]1O [DOXIFLURIDINE] | Not Active | Not Active | Not Active | Not Active | Not Active | Not Active | Not Active | Not Active | Not Active | Not Active |  |  |  |
| Cn1c(=O)c2c(ncn2CC(O)CO)n(C)c1=O (stereo unspecified) [DYPHYLLINE] | Not Active | Not Active | Not Active | Not Active | Not Active | Not Active | Not Active | Not Active | Not Active | Not Active |  |  |  |
| C[C@@H](CO)NC(=O)[C@@H]1C=C2c3cccc4[nH]cc(c34)C[C@H]2N(C)C1 [ERGONOVINE] | Not Active | Not Active | Not Active | Not Active | Not Active | Not Active | Not Active |  | Not Active | Not Active | 3.24 | 1.5 |  |
| COC(=O)CCc1ccc(OCC(O)CNC(C)C)cc1 (stereo unspecified) [ESMOLOL] | Not Active | Not Active | Not Active | Not Active | Not Active | Not Active | Not Active | Not Active | Not Active | Not Active |  |  |  |
| CCC1(C)CC(=O)NC1=O (stereo unspecified) [ETHOSUXIMIDE] | Not Active | Not Active | Not Active | Not Active | Not Active | Not Active | Not Active | Not Active | Not Active | Not Active |  |  |  |
| C#C[C@]1(OC(C)=O)CC[C@H]2[C@@H]3CCC4=C[C@@H](OC(C)=O)CC[C@@H]4[C@H]3CC[C@@]21C [ETHYNODIOL DIACETATE] | Not Active | Not Active | Not Active | Not Active | Not Active | Not Active | Not Active | Not Active | Not Active | Not Active |  |  |  |
| COc1cc([C@@H]2c3cc4c(cc3[C@@H](O[C@@H]3O[C@@H]5CO[C@@H](C)O[C@H]5[C@H](O)[C@H]3O)[C@H]3COC(=O)[C@H]23)OCO4)cc(OC)c1O [ETOPOSIDE] | Not Active | Not Active | Not Active | Not Active | Not Active | Not Active | Not Active | Not Active |  | Not Active |  |  | 3190 |
| C=CCc1ccc(O)c(OC)c1 [EUGENOL] | Not Active | Not Active | Not Active | Not Active | Not Active | Not Active | Not Active | Not Active | Not Active | Not Active |  |  |  |
| CC(C(=O)O)c1cccc(Oc2ccccc2)c1 (stereo unspecified) [FENOPROFEN] | Not Active | Not Active | Not Active | Not Active | Not Active | Not Active | Not Active | Not Active | Not Active | Not Active |  |  |  |
| CC(C)(C)NC(=O)[C@H]1CC[C@H]2[C@@H]3CC[C@H]4NC(=O)C=C[C@]4(C)[C@H]3CC[C@]12C [FINASTERIDE] | Not Active | Not Active | Not Active | Not Active | Not Active | Not Active | Not Active | Not Active | Not Active | Not Active |  |  |  |
